Source: US20100204153A1, “USE OF BAND 3 PROTEIN (824-829) AND/OR MELANOCYTE-STIMULATING HORMONE RELEASE-INHIBITING FACTOR AS A THERAPEUTIC AGENT IN THE TREATMENT OF PSEUDOMONAS AERUGINOSA INFECTION” (priority 2007, published 2010)
Where no end group is shown, it is not given here.

Experiments:
HIV-1IIIB = assay: HIV-1 antiviral assay in CEM-SS cells
HCMV strain AD169 = assay: HCMV plaque formation assay in MRC-5 cells; assay type: cell-based; settings: for inhibition of HCMV plaque formation as compared to the virus control experiment: 10 micrograms per ml, 7-10 days
[1] = system: hepatitis B virus (HBV) ayw strain; assay: HBV assay in HepG2-2.2.15 cells (TaqMan PCR of secreted HBV DNA); assay type: cell-based; settings: 10 micrograms per ml; six days
Pseudomonas aeruginosa = Pseudomonas aeruginosa assay; assay type: cell-based; settings: 10 micrograms per ml; 5×10^5 CFU/mL; combination 0.95:1.05 mole and all other molar ratios from 1:100 to 100:1
murine spleen cells = assay: Th1/Th2 cytokine profiling assay; assay type: cell-based, Balb/c mice; settings: 10 micrograms per ml; Ovalbumin restimulation, 72 hours; combination 0.95:1.05 mole
[2] = system: Primary Human endothelial cells (HUVEC); assay: Endothelial cell migration assay; assay type: cell-based; settings: 10 micrograms per ml; 22 hours
Description: Thereafter, designated concentration of testing peptides—10 micrograms per ml—was added in duplicate wells.

HUVEC = assay: Endothelial tube formation assay; assay type: cell-based, human; settings: 10 micrograms per ml; 20 hours
Excerpt: Positive control was vehicle only.

Compound	antiviral activity of positive control compounds (HIV-1) (HIV-1IIIB)	antiviral activity of positive control compound (HCMV) (HCMV strain AD169; positive control compound)	inhibition of HBV replication as compared to the virus control infection [1]	inhibition of HCMV plaque formation as compared to the virus control experiment (HCMV strain AD169)	inhibition of the growth of Pseudomonas aeruginosa (Pseudomonas aeruginosa) [%]	change of the production of IFN-γ (murine spleen cells)	change of the production of TNF-alpha (murine spleen cells)	decrease of the production of IL-2 (murine spleen cells) [%]	decrease of the production of IL-4 (murine spleen cells) [%]	decrease of the production of IL-5 (murine spleen cells) [%]	induction of the migration of endothelial cells [2] [%]	inhibition of the tube formation of human endothelial cells (HUVEC) [%]	inhibition of the migration of human endothelial cells [2] [%]
Cc1cn([C@H]2C[C@H](N=[N+]=[N-])[C@@H](CO)O2)c(=O)[nH]c1=O [AZT]	expected levels of antiviral activity												
Nc1nc(O)c2ncn(COC(CO)CO)c2n1 [Ganciclovir, reference compound]		expected levels of antiviral activity											
CC(C)(C)NC(=O)[C@@H]1CN(Cc2cccnc2)CCN1C[C@@H](O)C[C@@H](Cc1ccccc1)C(=O)N[C@H]1c2ccccc2C[C@H]1O [indinavir]	expected levels of antiviral activity												
Pro-Leu-Gly-NH2 [Peptide 2]			10.9%	did not inhibit	100	did not significantly change	did not significantly change	100	100	42.3	8	16	
Tyr-Val-Lys-Arg-Val-Lys-OH (YVKRVK-OH) [Peptide 1]			did not inhibit	did not inhibit	100	did not significantly change	did not significantly change	41.9	58.2	37.4		21	8
